According to patent US11497738B2, “Di-substituted pyrazole compounds for the treatment of diseases” (FGH BIOTECH, INC., priority 2016, dated 2022):

System: SCD1 expression
Assay: Inhibition assay: qPCR of SCD1 expression in HepG2 cells (Biological Example 1)
Assay type: cell-based
Conditions: Homo sapiens, 24 hours; for inhibition at 1 µM: read-out: Inhibition Percentage (%) 1 μM (SCD1 expression); for inhibition at 10 µM: read-out: Inhibition Percentage (%) 10 μM (SCD1 expression)
Experimental: HepG2 cells were grown in Dulbecco's Modified Eagle Medium (DMEM) containing 5% FBS and antibiotic-antimycotic in a humidified incubator at 37° C. with 5% CO2. All three components were purchased from ThermoFisher Scientific (Catalog numbers are 11995073, 26140079, and 15240062, respectively). Treatments were done in duplicates for each dose of each compound. For control and treated each treatment, 400,000 HepG2 cells were seeded onto 1 well of 24-well plate. After one day in culture, cells were treated with the test compound (1 μM and/or 10 μM, as indicated below in Table 1) for 24 hours in DMEM with 5% FBS. Compounds were diluted using DMSO from 20 mM stocks. Total RNAs were extracted using RNA extraction kit (Cat #: 45001163, Fisher Scientific) or Trizol. If Trizol was used, RNAs were treated with DNase I (cat #: 18068015, ThermoFisher Scientific) before qPCR. RNA concentrations were measured on a Nanodrop. One-step qPCR were performed using SYBR Green One Step qPCR Kit (Cat #: B25002, Biotool). 10 ng RNA was used in each 10-ul reaction. Triplicate reactions were done for each RNA sample. qPCR was performed on an ABI StepOnePlus using the program: Holding stage step 1, 50° C. 3 min, step 2, 95° C. 5 min; Cycling stage (40 cycles) step 1, 95° C. 10 sec, step 2, 60° C. 30 sec. Primer sequence was as follows: SCD1, 5′-[…]-3′/5′-[…]-3′.
All data was measured in HepG2 cells. % inhibition data of SCD1 expression are provided in Table 1. % inhibition at 10 μM is provided as follows: A≥75%; 75%>B≥50%; 50%>C≥10%. % inhibition at 1 μM is provided as follows: A1≥30%; 30%>B1≥2%. NI means no inhibition in the assay at the indicated concentration of compound tested. NT means not tested.

| Compound | inhibition at 1 µM [%] | inhibition at 10 µM [%] |
| --- | --- | --- |
| CCCc1cc(-n2nc(C)c(-c3ccc(NS(=O)(=O)C(F)(F)F)nc3)c2C)ccn1 [Example 39, N-(5-(3,5-dimethyl-1-(2-propylpyridin-4-yl)-1H-pyrazol-4-yl)pyridin-2-yl)-1,1,1-trifluoromethanesulfonamide] | 2 to 30 | 10 to 50 |
| CCCc1cc(-n2nc(C)c(-c3ccc(NC4CCCC4)nc3)c2C)ccn1 [Example 40, N-cyclopentyl-5-(3,5-dimethyl-1-(2-propylpyridin-4-yl)-1H-pyrazol-4-yl)pyridin-2-amine] | ≥ 30 | 50 to 75 |
| CCCn1cc(-n2cc(-c3ccc(NC(C)C)nc3)cn2)ccc1=O [Example 44, 5-(4-(6-(isopropylamino)pyridin-3-yl)-1H-pyrazol-1-yl)-1-propylpyridin-2(1H)-one] | 2 to 30 | > 75 |
| CCCn1cc(-n2cc(-c3ccc(NS(C)(=O)=O)cc3)cn2)ccc1=O [Example 45, N-(4-(1-(6-oxo-1-propyl-1,6-dihydropyridin-3-yl)-1H-pyrazol-4-yl)phenyl)methanesulfonamide] | ≥ 30 | > 75 |
| CCCc1cccc(-n2cc(-c3ccc(NS(C)(=O)=O)cc3)cn2)c1 [Example 47, N-(4-(1-(3-propylphenyl)-1H-pyrazol-4-yl)phenyl)methanesulfonamide] |  | 10 to 50 |
| CCCc1cc(-n2cc(-c3ccc(NC4CCOCC4)nc3)cn2)ccn1 [Example 52, 5-(1-(2-propylpyridin-4-yl)-1H-pyrazol-4-yl)-N-(tetrahydro-2H-pyran-4-yl)pyridin-2-amine] | ≥ 30 | > 75 |
| CCCc1cc(-n2cc(-c3ccc(NCC(C)C)nc3)c(C)n2)ccn1 [Example 53, N-isobutyl-5-(3-methyl-1-(2-propylpyridin-4-yl)-1H-pyrazol-4-yl)pyridin-2-amine] | 2 to 30 | > 75 |
| CCCc1cc(-n2cc(-c3ccc(NCC4CC4)nc3)c(C)n2)ccn1 [Example 54, N-(cyclopropylmethyl)-5-(3-methyl-1-(2-propylpyridin-4-yl)-1H-pyrazol-4-yl)pyridin-2-amine] |  | 50 to 75 |
| CCCc1cc(-n2cc(-c3ccc(NC4CCCC4)nc3)c(C)n2)ccn1 [Example 55, N-cyclopentyl-5-(3-methyl-1-(2-propylpyridin-4-yl)-1H-pyrazol-4-yl)pyridin-2-amine] | 2 to 30 | > 75 |
| CCCc1cc(-n2cc(-c3ccc(NC(C)C)nc3)c(C)n2)ccn1 [Example 56, N-isopropyl-5-(3-methyl-1-(2-propylpyridin-4-yl)-1H-pyrazol-4-yl)pyridin-2-amine] | 2 to 30 | > 75 |
| CCCc1cc(-n2cc(-c3ccc(NC4CCC4)nc3)c(C)n2)ccn1 [Example 57, N-cyclobutyl-5-(3-methyl-1-(2-propylpyridin-4-yl)-1H-pyrazol-4-yl)pyridin-2-amine] | 2 to 30 | > 75 |
